Where a SMILES comes first, the peptide text is derived from it. Bridges are numbered along the chain shown (N, C = ends). [ ]: non-standard residue; d: D form. Nle = CCCC[C@H](N)C(=O)O
How the values were obtained:
human Kv1.6 = biological target: T1, human Kv1.6 (Homo sapiens, UniProt P17658); assay: cell-based; details: ratio of patch clamp IC50 values
T1 construct: expressed in transfected cells; host or cells: CHO

human Kv1.2 = biological target: T2, human Kv1.2 (Homo sapiens, UniProt P16389); assay: cell-based; details: ratio of patch clamp IC50 values
T2 construct: expressed in transfected cells; host or cells: CHO

Rat whole blood = Rat whole blood (Rattus norvegicus, UniProt P15384); type: cell-based; details: IL-17A release, thapsigargin, 24 Hr, at least 2 replicates
human Kv1.1 = biological target: T3, human Kv1.1 (Homo sapiens, UniProt Q09470); assay: cell-based; details: ratio of patch clamp IC50 values
T3 construct: expressed in transfected cells; host or cells: CHO
T3 sequence (Q09470 whole entry): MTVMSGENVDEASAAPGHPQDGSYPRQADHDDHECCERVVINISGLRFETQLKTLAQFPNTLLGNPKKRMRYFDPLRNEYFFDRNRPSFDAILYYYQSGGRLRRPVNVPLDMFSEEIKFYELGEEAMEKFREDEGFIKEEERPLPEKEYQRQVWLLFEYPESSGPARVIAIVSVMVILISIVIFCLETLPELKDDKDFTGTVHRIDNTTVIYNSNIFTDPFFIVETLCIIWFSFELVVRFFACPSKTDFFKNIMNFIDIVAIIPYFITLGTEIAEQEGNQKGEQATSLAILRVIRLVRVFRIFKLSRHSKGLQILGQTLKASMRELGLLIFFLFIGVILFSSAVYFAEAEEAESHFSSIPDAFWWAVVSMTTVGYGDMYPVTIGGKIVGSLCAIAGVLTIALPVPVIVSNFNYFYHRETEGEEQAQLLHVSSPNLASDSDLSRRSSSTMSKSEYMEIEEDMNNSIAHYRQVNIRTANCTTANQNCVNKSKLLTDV

T2 sequence (P16389 whole entry): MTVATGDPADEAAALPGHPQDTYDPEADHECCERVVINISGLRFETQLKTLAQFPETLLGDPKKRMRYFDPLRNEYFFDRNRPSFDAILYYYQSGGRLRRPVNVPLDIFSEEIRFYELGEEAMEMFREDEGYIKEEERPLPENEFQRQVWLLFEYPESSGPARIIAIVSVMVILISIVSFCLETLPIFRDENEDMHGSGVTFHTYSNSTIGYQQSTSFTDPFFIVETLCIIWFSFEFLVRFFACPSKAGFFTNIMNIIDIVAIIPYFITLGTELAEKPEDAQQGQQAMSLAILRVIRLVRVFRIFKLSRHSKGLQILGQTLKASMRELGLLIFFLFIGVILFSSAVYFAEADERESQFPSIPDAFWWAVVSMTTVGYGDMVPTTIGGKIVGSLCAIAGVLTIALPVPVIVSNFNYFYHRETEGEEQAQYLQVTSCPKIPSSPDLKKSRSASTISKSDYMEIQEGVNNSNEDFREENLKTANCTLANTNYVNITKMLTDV
T1 sequence (P17658 whole entry): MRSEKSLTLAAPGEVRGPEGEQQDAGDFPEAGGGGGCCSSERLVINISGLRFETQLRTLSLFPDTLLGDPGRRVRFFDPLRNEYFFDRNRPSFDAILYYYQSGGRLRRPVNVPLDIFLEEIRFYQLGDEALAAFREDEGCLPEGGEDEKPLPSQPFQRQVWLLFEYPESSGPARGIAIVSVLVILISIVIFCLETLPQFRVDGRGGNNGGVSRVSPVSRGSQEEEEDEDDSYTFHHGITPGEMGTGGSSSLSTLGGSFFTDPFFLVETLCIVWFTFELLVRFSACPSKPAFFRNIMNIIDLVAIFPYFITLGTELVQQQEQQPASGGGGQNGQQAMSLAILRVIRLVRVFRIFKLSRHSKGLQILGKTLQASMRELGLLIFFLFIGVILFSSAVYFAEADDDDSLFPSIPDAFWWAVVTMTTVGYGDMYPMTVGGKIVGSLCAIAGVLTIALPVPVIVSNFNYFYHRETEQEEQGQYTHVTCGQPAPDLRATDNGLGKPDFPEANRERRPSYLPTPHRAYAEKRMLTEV
Chain of Rat whole blood (P15384 whole entry): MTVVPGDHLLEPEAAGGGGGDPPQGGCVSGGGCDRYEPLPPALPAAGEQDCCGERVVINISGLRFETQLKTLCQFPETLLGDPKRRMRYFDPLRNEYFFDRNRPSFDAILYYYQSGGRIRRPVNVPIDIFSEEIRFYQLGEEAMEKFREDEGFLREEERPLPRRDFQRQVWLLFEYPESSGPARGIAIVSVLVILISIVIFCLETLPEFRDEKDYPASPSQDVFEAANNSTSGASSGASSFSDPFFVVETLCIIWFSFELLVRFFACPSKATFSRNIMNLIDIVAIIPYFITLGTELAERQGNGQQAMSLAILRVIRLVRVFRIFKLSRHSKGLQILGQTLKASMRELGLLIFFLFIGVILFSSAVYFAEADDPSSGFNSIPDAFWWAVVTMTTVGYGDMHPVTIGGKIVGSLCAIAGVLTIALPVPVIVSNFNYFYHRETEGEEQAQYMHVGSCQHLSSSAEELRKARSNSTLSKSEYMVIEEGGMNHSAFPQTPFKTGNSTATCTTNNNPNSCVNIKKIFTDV

Structure (SMILES) | Selectivity ratio Kv1.6/Kv1.3 (human Kv1.6) | Selectivity ratio Kv1.2/Kv1.3 (human Kv1.2) | IC50 (Rat whole blood) [nM] | Selectivity ratio Kv1.1/Kv1.3 (human Kv1.1)
CC[C@H](C)[C@@H]1NC(=O)[C@H](C)NC(=O)[C@H](CCCCN)NC(=O)[C@H](CC(C)C)NC(=O)[C@@H]2CSSC[C@@H](C(=O)N[C@@H](Cc3ccc(O)cc3)C(=O)N3CCC[C@H]3C(=O)N[C@@H](CCCNC(=N)N)C(N)=O)NC(=O)[C@H](CCCCN)NC(=O)[C@@H]3CSSC[C@H](NC(=O)[C@H](CCC(=O)O)NC(=O)[C@H](C(C)C)NC(=O)[C@H](CO)NC(=O)[C@H](C)NC(=O)[C@H](CO)NC(=O)[C@@H](NC(=O)[C@H](CCCNC(=N)N)NC(=O)[C@H](CCSC)NC(=O)[C@H](CC(=O)O)NC(=O)[C@H](CCSC)NC(=O)[C@@H](N)CC(N)=O)CSSC[C@H](NC(=O)[C@H](CCCCN)NC(=O)CNC(=O)[C@H](Cc4ccccc4)NC(=O)[C@H]([C@@H](C)CC)NC(=O)[C@H](CO)NC(=O)CNC1=O)C(=O)N[C@@H](CCSC)C(=O)N[C@@H](CC(N)=O)C(=O)N[C@@H](CCCCN)C(=O)N[C@@H](CCCCN)C(=O)N3)C(=O)N[C@@H](CCCCN)C(=O)N[C@@H](CCC(N)=O)C(=O)N[C@@H](CC(C)C)C(=O)N2 [compound 23] (H-NMDMRCSASVECKQLCLKAIGSIFGKCMNKKCKCYPR-NH2; disulfide 6-27, 12-32, 16-34) | >12700 | 1080 | 3.2 | >12700
CC[C@H](C)[C@@H]1NC(=O)[C@H](C)NC(=O)[C@H](CCCCN)NC(=O)[C@H](CCCCN)NC(=O)[C@@H]2CSSC[C@@H](C(=O)N[C@@H](Cc3ccc(O)cc3)C(=O)N3CCC[C@H]3C(=O)N[C@@H](CCCNC(=N)N)C(N)=O)NC(=O)[C@H](CCCCN)NC(=O)[C@@H]3CSSC[C@H](NC(=O)[C@H](CCC(=O)O)NC(=O)[C@H](C(C)C)NC(=O)[C@H](CO)NC(=O)[C@H](C)NC(=O)[C@H](CO)NC(=O)[C@@H](NC(=O)[C@H](CCCNC(=N)N)NC(=O)[C@H](CCSC)NC(=O)[C@H](CC(=O)O)NC(=O)[C@H](CCSC)NC(=O)[C@@H](N)CC(N)=O)CSSC[C@H](NC(=O)[C@H](CCCCN)NC(=O)CNC(=O)[C@H](Cc4ccccc4)NC(=O)[C@H]([C@@H](C)CC)NC(=O)[C@H](CO)NC(=O)CNC1=O)C(=O)N[C@@H](CCSC)C(=O)N[C@@H](CC(N)=O)C(=O)N[C@@H](CCCCN)C(=O)N[C@@H](CCCCN)C(=O)N3)C(=O)N[C@@H](CCCCN)C(=O)N[C@@H](CCC(N)=O)C(=O)N[C@@H](CCCCN)C(=O)N2 [compound 24] (H-NMDMRCSASVECKQKCKKAIGSIFGKCMNKKCKCYPR-NH2; disulfide 6-27, 12-32, 16-34) | 1955 | 202 | 0.56 | >13500
CC[C@H](C)[C@@H]1NC(=O)[C@H](CCCNC(=N)N)NC(=O)[C@H](CCCCN)NC(=O)[C@H](CC(C)C)NC(=O)[C@@H]2CSSC[C@@H](C(=O)N[C@@H](Cc3ccc(O)cc3)C(=O)N3CCC[C@H]3C(=O)N[C@@H](CCCNC(=N)N)C(N)=O)NC(=O)[C@H](CCCCN)NC(=O)[C@@H]3CSSC[C@H](NC(=O)[C@H](CCC(=O)O)NC(=O)[C@H](C(C)C)NC(=O)[C@H](CO)NC(=O)[C@H](C)NC(=O)[C@H](CO)NC(=O)[C@@H](NC(=O)[C@H](CCCNC(=N)N)NC(=O)[C@H](CCSC)NC(=O)[C@H](CC(=O)O)NC(=O)[C@H](CCSC)NC(=O)[C@@H](N)CC(N)=O)CSSC[C@H](NC(=O)[C@H](CCCCN)NC(=O)CNC(=O)[C@H](Cc4ccccc4)NC(=O)[C@H]([C@@H](C)CC)NC(=O)[C@H](CO)NC(=O)CNC1=O)C(=O)N[C@@H](CCSC)C(=O)N[C@@H](CC(N)=O)C(=O)N[C@@H](CCCCN)C(=O)N[C@@H](CCCCN)C(=O)N3)C(=O)N[C@@H](CCCCN)C(=O)N[C@@H](CCC(N)=O)C(=O)N[C@@H](CCCCN)C(=O)N2 [compound 60] (H-NMDMRCSASVECKQKCLKRIGSIFGKCMNKKCKCYPR-NH2; disulfide 6-27, 12-32, 16-34) | 3062 | 187 | – | >9900
CC[C@H](C)[C@@H]1NC(=O)[C@H](CO)NC(=O)CNC(=O)[C@H](Cc2ccc(O)cc2)NC(=O)[C@H](C)NC(=O)[C@H](CCCCN)NC(=O)[C@H](CC(C)C)NC(=O)[C@@H]2CSSC[C@@H](C(=O)N[C@@H](Cc3ccc(O)cc3)C(=O)N3CCC[C@H]3C(=O)N[C@@H](CCCNC(=N)N)C(N)=O)NC(=O)[C@H](CCCCN)NC(=O)[C@@H]3CSSC[C@H](NC(=O)[C@H](CCC(=O)O)NC(=O)[C@H](C(C)C)NC(=O)[C@H](CO)NC(=O)[C@H](C)NC(=O)[C@H](CO)NC(=O)[C@@H](NC(=O)[C@H](CCCNC(=N)N)NC(=O)[C@H](CCSC)NC(=O)[C@H](CC(=O)O)NC(=O)[C@H](CCSC)NC(=O)[C@@H](N)CC(N)=O)CSSC[C@H](NC(=O)[C@H](CCCCN)NC(=O)CNC(=O)[C@H](Cc4ccccc4)NC1=O)C(=O)N[C@@H](CCSC)C(=O)N[C@@H](CC(N)=O)C(=O)N[C@@H](CCCCN)C(=O)N[C@@H](CCCCN)C(=O)N3)C(=O)N[C@@H](CCCCN)C(=O)N[C@@H](CCC(N)=O)C(=O)N[C@@H](CCCCN)C(=O)N2 [compound 61] (H-NMDMRCSASVECKQKCLKAYGSIFGKCMNKKCKCYPR-NH2; disulfide 6-27, 12-32, 16-34) | >8800 | 426 | – | >8800
CCCC[C@H](NC(=O)[C@H](CC(=O)O)NC(=O)[C@H](CCCC)NC(=O)[C@@H](N)CO)C(=O)N[C@@H](CCCNC(=N)N)C(=O)N[C@H]1CSSC[C@@H]2NC(=O)[C@H](CCCCN)NC(=O)CNC(=O)[C@H](Cc3ccccc3)NC(=O)[C@H]([C@@H](C)CC)NC(=O)[C@H](CO)NC(=O)CNC(=O)[C@H]([C@@H](C)CC)NC(=O)[C@H](C)NC(=O)[C@H](CCCCN)NC(=O)[C@H](CC(C)C)NC(=O)[C@@H]3CSSC[C@@H](C(=O)N[C@@H](Cc4ccc(O)cc4)C(=O)N4CCC[C@H]4C(=O)N[C@@H](CCCNC(=N)N)C(N)=O)NC(=O)[C@H](CCCCN)NC(=O)[C@H](CSSC[C@H](NC(=O)[C@H](CCC(=O)O)NC(=O)[C@H](C(C)C)NC(=O)[C@H](CO)NC(=O)[C@H](C)NC(=O)[C@H](CO)NC1=O)C(=O)N[C@@H](C)C(=O)N[C@@H](CCC(N)=O)C(=O)N[C@@H](CO)C(=O)N3)NC(=O)[C@H](CCCCN)NC(=O)[C@H](CCCCN)NC(=O)[C@H](CC(N)=O)NC(=O)[C@H](CCSC)NC2=O [compound 78] (H-S[Nle]D[Nle]RCSASVECAQSCLKAIGSIFGKCMNKKCKCYPR-NH2; disulfide 6-27, 12-32, 16-34) | >14600 | 5596 | – | >14600
